16 compounds from ChEMBL document CHEMBL4346718, “Cucurbitacins inspired organic synthesis: Potential dual inhibitors targeting EGFR - MAPK pathway” (Eur J Med Chem, 2019) can be followed below.

In experiment [1] the test system is HepG2. Put plainly: Antiproliferative activity against human HepG2 cells assessed as reduction in cell growth incubated for 48 hrs by MTT assay. In kind it is functional, cell-based. The note with it: HepG2, 48 h. (In general: Tetrazolium assays rely on reduction of a dye to a coloured formazan, in cell work by metabolically active cells.)
Experiment [2] has as its system HepG2. Description: Inhibition of cell migration in human HepG2 cells at IC50 incubated for 48 hrs by phase contrast microscopy. It is filed as functional.
Experiment [3] concerns HepG2. Description: Inhibition of EGFR/MAPK signalling pathway in human HepG2 cells assessed as reduction in phosphorylation of ERK 1/2 at 2 uM incubated up to 48 hrs by Western blot analysis. It is filed as cell-based.
Experiment [4] concerns HepG2. Put plainly: Inhibition of EGFR/MAPK signalling pathway in human HepG2 cells assessed as reduction in phosphorylation of B-RAF at 2 uM incubated for 8 hrs by Western blot analysis. It is filed as cell-based. For orientation: A western blot detects proteins with antibodies after separation by electrophoresis.
The subject of experiment [5] is HepG2. Description: Inhibition of EGFR/MAPK signalling pathway in human HepG2 cells assessed as reduction in phosphorylation of MEK at 2 uM incubated up to 48 hrs by Western blot analysis. In kind it is cell-based.
The subject of experiment [6] is HepG2. Put plainly: Inhibition of EGFR/MAPK signalling pathway in human HepG2 cells assessed as reduction in phosphorylation of EGFR at 2 uM incubated for 2 hrs by Western blot analysis. In kind it is cell-based.
Experiment [7] concerns HepG2. Description: Induction of cell cycle arrest in human HepG2 cells assessed as accumulation at S phase at 2 uM incubated for 24 hrs by flow cytometry analysis (reference value: 26.1%). It is filed as functional. For orientation: A flow cytometer gives signals particle by particle.
Experiment [8] relates to HepG2. Description: Induction of cell cycle arrest in human HepG2 cells assessed as accumulation at G2 phase at 1 uM incubated for 24 hrs by flow cytometry analysis (reference value: 37.5%). In kind it is functional.
The subject of experiment [9] is HepG2. Description: Induction of apoptosis in human HepG2 cells assessed as increase in cleaved caspase-3 level at 2 uM incubated for 48 hrs by Western blot analysis. It is filed as functional, cell-based.
The subject of experiment [10] is HepG2. Put plainly: Induction of apoptosis in human HepG2 cells assessed as increase in cleaved caspase-9 level at 2 uM incubated for 48 hrs by Western blot analysis. In kind it is functional, cell-based.
For experiment [11], the system named is HepG2. Description: Induction of cell cycle arrest in human HepG2 cells assessed as accumulation at G1 phase at 4 uM incubated for 24 hrs by flow cytometry analysis (reference value: 32.3%). In kind it is functional.
For experiment [12], the system named is HepG2. Put plainly: Inhibition of EGFR/MAPK signalling pathway in human HepG2 cells assessed as reduction in phosphorylation of B-RAF at 3 uM incubated for 24 hrs by Western blot analysis. It is filed as cell-based.
Experiment [13] has as its system HepG2. Description: Induction of cell cycle arrest in human HepG2 cells assessed as accumulation at S phase at 4 uM incubated for 24 hrs by flow cytometry analysis (reference value: 26.1%). In kind it is functional.
In experiment [14] the test system is HepG2. Description: Induction of cell cycle arrest in human HepG2 cells assessed as accumulation at S phase at 1 uM incubated for 24 hrs by flow cytometry analysis (reference value: 26.1%). It is filed as functional.
Experiment [15] has as its system HepG2. Put plainly: Induction of cell cycle arrest in human HepG2 cells assessed as accumulation at G2 phase at 4 uM incubated for 24 hrs by flow cytometry analysis (reference value: 37.5%). In kind it is functional.
For experiment [16], the system named is HepG2. Description: Induction of apoptosis in human HepG2 cells assessed as increase in cleaved PARP-1 level at 2 uM incubated for 48 hrs by Western blot analysis. In kind it is functional, cell-based.
Experiment [17] concerns HepG2. Put plainly: Inhibition of EGFR/MAPK signalling pathway in human HepG2 cells assessed as reduction in ELK phosphorylation incubated for 24 hrs by Western blot analysis. It is filed as cell-based.
Experiment [18] has as its system HepG2. Put plainly: Induction of cell cycle arrest in human HepG2 cells assessed as accumulation at G1 phase at 2 uM incubated for 24 hrs by flow cytometry analysis (reference value: 32.3%). In kind it is functional.
Experiment [19] relates to HepG2. Put plainly: Inhibition of EGFR/MAPK signalling pathway in human HepG2 cells assessed as reduction in phosphorylation of EGFR at 3 uM incubated for 48 hrs by Western blot analysis. It is filed as cell-based.
The subject of experiment [20] is HepG2. Put plainly: Inhibition of EGFR/MAPK signalling pathway in human HepG2 cells assessed as reduction in phosphorylation of MEK at 3 uM incubated up to 48 hrs by Western blot analysis. It is filed as cell-based.
Experiment [21] deals with HepG2. Put plainly: Induction of cell cycle arrest in human HepG2 cells assessed as accumulation at G2 phase at 2 uM incubated for 24 hrs by flow cytometry analysis (reference value: 37.5%). It is filed as functional.
Experiment [22] has as its system HepG2. Description: Induction of cell cycle arrest in human HepG2 cells assessed as accumulation at G1 phase at 1 uM incubated for 24 hrs by flow cytometry analysis (reference value: 32.3%). In kind it is functional.
For experiment [23], the system named is HepG2. Put plainly: Inhibition of EGFR/MAPK signalling pathway in human HepG2 cells assessed as reduction in phosphorylation of ERK 1/2 at 3 uM incubated up to 48 hrs by Western blot analysis. It is filed as cell-based.

Activity calls are given as the source filed them. The rule behind the calls is not given here.

For orientation: IC50 means the concentration that gives 50% inhibition. As for `COc1ccc2c(c1)CC[C@@H]1[C@@H]2CC[C@]2(C)C([C@](C)(O)C(=O)/C=C/c3ccc(F)cc3)=CC[C@@H]12`, in experiment [1], the IC50 was found to be 8 µM.
Regarding `COc1ccc2c(c1)CC[C@@H]1[C@@H]2CC[C@]2(C)C([C@@](C)(O)C(=O)/C=C/c3ccc(Cl)cc3)=CC[C@@H]12`, the IC50 in experiment [1] is 25 µM.
In the case of `COc1ccc2c(c1)CC[C@@H]1[C@@H]2CC[C@]2(C)C([C@@](C)(O)C(=O)/C=C/c3ccc(C(F)(F)F)cc3)=CC[C@@H]12`, in experiment [1], the IC50 turned out to be 2 µM.
The same measure, in the same setting: the figure for `COc1ccc2c(c1)CC[C@@H]1[C@@H]2CC[C@]2(C)C([C@@](C)(O)C(=O)/C=C/c3ccc(Br)cc3)=CC[C@@H]12` is 32 µM.
Take `COc1ccc2c(c1)CC[C@@H]1[C@@H]2CC[C@]2(C)C([C@@](C)(O)C(=O)/C=C/c3ccc(Br)o3)=CC[C@@H]12`: in experiment [1], the concentration for half-maximal inhibition (IC50) was 6 µM.
As for `COc1ccc2c(c1)CC[C@@H]1[C@@H]2CC[C@]2(C)C([C@@](C)(O)C(=O)/C=C/c3ccc(F)cc3)=CC[C@@H]12`, the IC50 in experiment [1] was 7 µM.
On the same count and under the same terms, the figure for `COc1ccc2c(c1)CC[C@@H]1[C@@H]2CC[C@]2(C)C([C@](C)(O)C(=O)/C=C/c3ccc(Br)s3)=CC[C@@H]12` is 11 µM.
As for `COc1ccc2c(c1)CC[C@@H]1[C@@H]2CC[C@]2(C)C([C@](C)(O)C(=O)/C=C/c3ccc(C(F)(F)F)cc3)=CC[C@@H]12`, the half-maximal inhibitory concentration (IC50) in [1] was determined as 3 µM.
Turning to `COc1ccc2c(c1)CC[C@@H]1[C@@H]2CC[C@]2(C)C([C@](C)(O)C(=O)/C=C/c3ccc([N+](=O)[O-])cc3)=CC[C@@H]12`, the IC50 in experiment [1] is 29 µM.
With `COc1ccc2c(c1)CC[C@@H]1[C@@H]2CC[C@]2(C)C([C@@](C)(O)C(=O)/C=C/c3ccc([N+](=O)[O-])cc3)=CC[C@@H]12`, in experiment [1], the concentration for half-maximal inhibition (IC50) is 20 µM.
The inhibition is how much of the control response was suppressed. As for `COc1ccc2c(c1)CC[C@@H]1[C@@H]2CC[C@]2(C)C([C@](C)(O)C(=O)/C=C/C(C)(C)O)=CC[C@@H]12`, the inhibition result in [2], in [3], in experiment [4], in experiment [5] and in [6] was “Active” each time. Besides, the IC50 in experiment [1] was determined as 3 µM.
For `COc1ccc(/C=C/C(=O)[C@@](C)(O)C2=CC[C@H]3[C@@H]4CCc5cc(OC)ccc5[C@H]4CC[C@]23C)cc1`, the half-inhibitory concentration (IC50) in [1] came out at 16 µM.
`COc1ccc2c(c1)CC[C@@H]1[C@@H]2CC[C@]2(C)C([C@@](C)(O)C(=O)/C=C/c3ccc(Br)s3)=CC[C@@H]12`: in [1], the IC50 was 0.7 µM.
Turning to `COc1ccc(/C=C/C(=O)[C@](C)(O)C2=CC[C@H]3[C@@H]4CCc5cc(OC)ccc5[C@H]4CC[C@]23C)cc1`, the half-maximal inhibitory concentration (IC50) in experiment [1] is 2 µM.
For `COc1ccc2c(c1)CC[C@@H]1[C@@H]2CC[C@]2(C)C([C@@](C)(O)C(=O)/C=C/C(C)(C)O)=CC[C@@H]12`, the “inhibition (INH)” value in experiment [2] is 100%. Further, the Activity in experiment [7] was 23.2%; in experiment [8] it was 38%; in experiment [11], 41.1%; in experiment [13], 37.4%; in experiment [14], 23.4%; in experiment [15], 21.1%. For the same compound, the figures for the Activity in experiment [18], in [21] and in [22] were 37.6%, 34.1% and 36.1%, respectively. The outcome in experiment [9], in experiment [10] and in experiment [16] was Active. Also, the inhibition result in [12], in [17], in experiment [20] and in [23] was “Active” each time. In addition, the inhibition in experiment [19] came out at 90%. Also, the IC50 in experiment [1] turned out to be 2 µM.
As to `C#Cc1cccc(Nc2ncnc3cc(OCCOC)c(OCCOC)cc23)c1` [ERLOTINIB], in experiment [2], the “inhibition (INH)” value is 93%.
